Reference: paper PMC12596218 (Journal of Lipid Research, 2025)
Values joined by “and” are separate entries in the source; they are usually repeats but may differ in a detail not shown here. Identical values can stand only once.

Experiments:
NTCP M290S (NTCP→ASBT) = target: T1, NTCP M290S (NTCP→ASBT) (Homo sapiens, UniProt Q14973, M290S); assay: [3H]TC transport and inhibition assay, NTCP→ASBT mutant in HEK293 cells; assay type: cell-based; settings: 1 μM [3H]TC, 10 min
T1 construct: stably transfected with the full open reading frames of human NTCP, ASBT, SOAT, OATP1B1, OATP1B3, OATP2B1, and murine Asbt (mAsbt); expressed in transfected cells; host or cells: HEK293, stably transfected
T1 sequence (Q14973 1-349 M290S): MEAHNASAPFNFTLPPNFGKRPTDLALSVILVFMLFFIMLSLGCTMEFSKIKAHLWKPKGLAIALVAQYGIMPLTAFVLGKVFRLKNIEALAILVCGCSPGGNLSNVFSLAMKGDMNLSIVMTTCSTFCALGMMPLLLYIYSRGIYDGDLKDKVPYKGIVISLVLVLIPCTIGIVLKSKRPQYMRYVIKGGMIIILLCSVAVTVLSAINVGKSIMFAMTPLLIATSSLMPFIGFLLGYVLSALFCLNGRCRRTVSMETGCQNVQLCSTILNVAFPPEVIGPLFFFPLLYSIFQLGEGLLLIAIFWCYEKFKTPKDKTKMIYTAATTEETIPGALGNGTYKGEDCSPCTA
Procedure: Amplification was performed on a peqSTAR XS PEQLAB PCR cycler (Peqlab) with Pfu DNA polymerase (M774A; Promega) in 18 cycles under the following conditions: initial denaturation for 2 min at 95°C, denaturation for 30 s at 95°C, annealing for 1 min at 55°C, extension for 8 min and 30 s at 72°C, final elongation for 10 min at 72°C and final hold at 4°C. After amplification, the products were digested with DpnI (ER1701; Thermo Fisher Scientific) for 1 h at 37°C and transformed into TOP10 chemically competent E. coli (Thermo Fisher Scientific). Plasmids were isolated using a GeneJET Plasmid Miniprep Kit (Thermo Fisher Scientific) according to the manufacturer's protocol, and the generated point mutations were verified by DNA sequencing (Seqlab Microsynth).
(§1) Cells were seeded onto poly-L-lysine-coated 96-well plates, induced with 1 μg/ml tetracycline, and grown to confluence over 72 h at 37°C. Then, cells were washed with tempered (37°C) phosphate-buffered saline (PBS, containing 137.0 mM NaCl, 2.7 mM KCl, 1.5 mM KH2PO4, and 7.3 mM Na2HPO4, at pH 7.4) and preincubated with 80 μl sodium transport buffer (STB, containing 142.9 mM NaCl, 4.7 mM KCl, 1.2 mM MgSO4, 1.2 mM KH2PO4, 1.8 mM CaCl2, and 20.0 mM HEPES, at pH 7.4) for 5 min at 37°C. For inhibition studies, the medium was replaced by 80 μl STB containing the respective inhibitor or solvent alone and cells were further incubated for 5 min at 37°C. Transport experiments were started by adding 20 μl of a 5-fold concentrated substrate solution (solved in STB). For transport experiments under sodium-free conditions the same buffer composition was used as for STB, but sodium chloride was substituted with equimolar concentrations of choline chloride as previously reported ([20], [24]). Transport experiments were stopped by washing twice with ice-cold PBS and the plates were kept cool on ice until adding the lysis buffer [1% sodium dodecyl sulfate (SDS) and 1 N NaOH]. Then, the cell-associated radioactivity of the respective tritium-labeled substrate or ligand was quantified by liquid scintillation counting using MicroScint-20 scintillation cocktail (Revvity) in a Packard Microplate Scintillation Counter TopCount NXT (Packard Instrument Company). For IC50 transport inhibition measurements, the mean uptake values measured in non-carrier-expressing HEK293 control cells were defined as 0% uptake control and were subtracted from all other values. Values from cells without inhibitor and solvent alone were set to 100%. Finally, all net transport data were expressed as uptake or binding as % of control. All transport or inhibition graphs were generated with GraphPad Prism 6 (GraphPad). Determination of half maximal inhibitory concentrations (IC50) was done by nonlinear regression analysis using the equation log (inhibitor) versus response—variable slope settings. All data points of the IC50 curves represent means ± SD of quadruplicate determinations. For Km measurements, BS uptake in the absence of sodium was regarded as carrier-independent unspecific uptake and was subtracted from the transport rates in the presence of sodium to obtain carrier-specific uptake rates (indicated as dashed lines). From the specific uptake rates, Michaelis Menten Km values were calculated by non-linear regression analysis.

OATP1B3 = target: T2, OATP1B3 (Homo sapiens, UniProt Q9NPD5); assay: [3H]BSP transport inhibition assay in OATP1B3-HEK293 cells; assay type: cell-based; settings: 1 μM [3H]BSP, 10 min; two independent experiments
T2 construct: stably transfected with the full open reading frames of human NTCP, ASBT, SOAT, OATP1B1, OATP1B3, OATP2B1, and murine Asbt (mAsbt); expressed in transfected cells; host or cells: HEK293, stably transfected (OATP1B3-HEK), tetracycline-induced
T2 sequence (Q9NPD5 1-702): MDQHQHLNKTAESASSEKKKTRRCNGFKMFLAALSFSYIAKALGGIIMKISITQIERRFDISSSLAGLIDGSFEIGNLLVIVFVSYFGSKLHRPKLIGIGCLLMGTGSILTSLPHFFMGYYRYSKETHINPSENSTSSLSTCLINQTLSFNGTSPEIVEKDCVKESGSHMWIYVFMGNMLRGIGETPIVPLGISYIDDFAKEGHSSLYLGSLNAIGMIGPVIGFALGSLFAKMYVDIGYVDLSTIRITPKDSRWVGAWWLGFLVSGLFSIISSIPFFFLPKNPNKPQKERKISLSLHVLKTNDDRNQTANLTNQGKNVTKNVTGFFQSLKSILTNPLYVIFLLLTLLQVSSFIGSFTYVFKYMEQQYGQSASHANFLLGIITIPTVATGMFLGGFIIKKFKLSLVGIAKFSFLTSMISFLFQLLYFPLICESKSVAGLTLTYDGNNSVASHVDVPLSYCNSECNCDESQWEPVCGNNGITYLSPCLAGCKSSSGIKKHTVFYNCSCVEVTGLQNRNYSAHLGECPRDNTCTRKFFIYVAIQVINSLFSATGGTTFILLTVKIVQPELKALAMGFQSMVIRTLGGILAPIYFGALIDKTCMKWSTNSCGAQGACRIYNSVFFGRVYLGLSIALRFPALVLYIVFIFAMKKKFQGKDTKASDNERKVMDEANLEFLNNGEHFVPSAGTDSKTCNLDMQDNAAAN
Excerpt: Human embryonic kidney HEK293 cells, stably transfected with the full open reading frames of human NTCP, ASBT, SOAT, OATP1B1, OATP1B3, OATP2B1, and murine Asbt (mAsbt) were used as reported ([18], [20], [21], [22], [23]). The NTCP, ASBT, and mAsbt constructs were C-terminally tagged with the FLAG epitope, and the SOAT construct was C-terminally tagged with green fluorescent protein. Non-transfected Flp-In HEK293 cells (Thermo Fisher Scientific) served as the control. All cell lines were maintained at 37°C, 5% CO2 and 95% humidity in DMEM/F-12 medium (Thermo Fisher Scientific) supplemented with 10% fetal calf serum (Sigma-Aldrich), 4 mM L-glutamine (PAA) and penicillin/streptomycin (PAA). Expression of the respective carrier protein was induced by tetracycline treatment at 1 μg/ml (Carl Roth GmbH + Co. KG).
as §1

SMILES | Inhibition curves and AUC of NTCP→ASBT mutant compared to wild-type NTCP (NTCP M290S (NTCP→ASBT)) | IC50 (OATP1B3)
CCCCC1(CCCC)CS(=O)(=O)c2ccc(N(C)C)cc2[C@@H](c2ccc(OCc3ccc(C[N+]45CCN(CC4)CC5)cc3)cc2)[C@H]1O [maralixibat] | did not significantly change | 5.5 µM and 5.2 µM
CCCCC1(CCCC)CN(c2ccccc2)c2cc(SC)c(OCC(=O)N[C@@H](C(=O)N[C@@H](CC)C(=O)O)c3ccc(O)cc3)cc2S(=O)(=O)N1 [odevixibat] | did not significantly change | 5.1 µM and 4.3 µM
CCCC[C@]1(CC)CS(=O)(=O)c2cc(CNC(CC(=O)O)CC(=O)O)c(OC)cc2[C@@H](c2ccccc2)N1 [linerixibat] | still inactive | 2 to 8 µM and 3.6 µM and 2.2 µM
CCCCC1(CCCC)CS(=O)(=O)c2ccc(N(C)C)cc2[C@@H](c2ccc(OCCCC[N+]34CCN(CC3)CC4)cc2)[C@H]1O [SC-435] | still inactive | 2 to 8 µM and 7.8 µM and 5.1 µM
CCCCC1(CCCC)CN(c2ccccc2)c2cc(SC)c(OCC(=O)N[C@@H](C(=O)NCC(=O)O)c3ccccc3)cc2S(=O)(=O)C1 [elobixibat] | did not significantly change | 4.8 µM and 4.2 µM
